% of control, % activity and % of inhibition data for four compounds are collected here from ChEMBL document CHEMBL5465560, “Selectivity Literature for EUbOPEN Chemogenomic Library” (2024).

Experiment [1] deals with Bone morphogenetic protein receptor type-1A (Homo sapiens, UniProt P36894). Kind of experiment: Selectivity interaction (KinomeScan (DiscoverX)) EUB0000666a BMPR1A. As to conditions: at 10 µM.
Experiment [2] concerns the target T1, Histone-lysine N-methyltransferase EHMT2 (Homo sapiens) (UniProt Q96KQ7).
T1 sequence (whole entry): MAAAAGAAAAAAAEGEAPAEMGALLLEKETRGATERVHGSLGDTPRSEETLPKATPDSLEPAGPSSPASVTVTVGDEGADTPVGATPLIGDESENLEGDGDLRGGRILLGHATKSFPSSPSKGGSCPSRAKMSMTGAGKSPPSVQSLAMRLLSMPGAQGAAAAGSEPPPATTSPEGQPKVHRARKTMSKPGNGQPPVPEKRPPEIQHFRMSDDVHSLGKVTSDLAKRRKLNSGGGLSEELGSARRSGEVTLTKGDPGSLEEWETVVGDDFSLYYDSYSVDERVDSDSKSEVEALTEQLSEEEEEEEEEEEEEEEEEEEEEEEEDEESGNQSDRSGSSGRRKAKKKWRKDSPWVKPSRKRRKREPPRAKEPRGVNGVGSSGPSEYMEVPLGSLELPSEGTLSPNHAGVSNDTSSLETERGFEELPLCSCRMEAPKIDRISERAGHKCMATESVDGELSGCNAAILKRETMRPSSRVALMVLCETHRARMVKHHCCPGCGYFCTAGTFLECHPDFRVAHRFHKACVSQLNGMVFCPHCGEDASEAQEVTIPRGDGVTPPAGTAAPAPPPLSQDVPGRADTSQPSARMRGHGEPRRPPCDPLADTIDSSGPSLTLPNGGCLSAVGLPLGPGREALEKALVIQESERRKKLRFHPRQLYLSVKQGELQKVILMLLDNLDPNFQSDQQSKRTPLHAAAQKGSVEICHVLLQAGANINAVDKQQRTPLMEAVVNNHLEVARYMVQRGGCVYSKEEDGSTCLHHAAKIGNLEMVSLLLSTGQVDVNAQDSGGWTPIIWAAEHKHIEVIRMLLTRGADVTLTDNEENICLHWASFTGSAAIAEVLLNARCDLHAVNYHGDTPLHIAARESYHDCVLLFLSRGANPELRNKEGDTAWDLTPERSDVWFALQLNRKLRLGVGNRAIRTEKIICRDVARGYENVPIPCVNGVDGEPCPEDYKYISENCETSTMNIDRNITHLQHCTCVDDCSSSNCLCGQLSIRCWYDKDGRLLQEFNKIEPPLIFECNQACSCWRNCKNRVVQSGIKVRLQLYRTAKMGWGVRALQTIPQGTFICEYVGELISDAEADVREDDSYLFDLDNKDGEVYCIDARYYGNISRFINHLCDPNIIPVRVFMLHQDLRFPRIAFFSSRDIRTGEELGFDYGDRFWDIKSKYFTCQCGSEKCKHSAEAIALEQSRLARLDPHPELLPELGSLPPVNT
Conditions: at 1 µM.

Experiment [3] concerns the target Serine-protein kinase ATM (Homo sapiens) (UniProt Q13315). The experiment is described as follows: Selectivity interaction (ActivX KiNativ screen (kinase selectivity in THP-1 cell lysates)) EUB0000639a ATM. Format: subcellular. Conditions: lysate.
The target in experiment [4] is Non-receptor tyrosine-protein kinase TYK2 (Homo sapiens, UniProt P29597). Kind of experiment: Selectivity interaction (Kinase panel (Invitrogen)) EUB0000639a TYK2. As to conditions: at 200 nM.
Non-receptor tyrosine-protein kinase TYK2, sequence (P29597 whole entry): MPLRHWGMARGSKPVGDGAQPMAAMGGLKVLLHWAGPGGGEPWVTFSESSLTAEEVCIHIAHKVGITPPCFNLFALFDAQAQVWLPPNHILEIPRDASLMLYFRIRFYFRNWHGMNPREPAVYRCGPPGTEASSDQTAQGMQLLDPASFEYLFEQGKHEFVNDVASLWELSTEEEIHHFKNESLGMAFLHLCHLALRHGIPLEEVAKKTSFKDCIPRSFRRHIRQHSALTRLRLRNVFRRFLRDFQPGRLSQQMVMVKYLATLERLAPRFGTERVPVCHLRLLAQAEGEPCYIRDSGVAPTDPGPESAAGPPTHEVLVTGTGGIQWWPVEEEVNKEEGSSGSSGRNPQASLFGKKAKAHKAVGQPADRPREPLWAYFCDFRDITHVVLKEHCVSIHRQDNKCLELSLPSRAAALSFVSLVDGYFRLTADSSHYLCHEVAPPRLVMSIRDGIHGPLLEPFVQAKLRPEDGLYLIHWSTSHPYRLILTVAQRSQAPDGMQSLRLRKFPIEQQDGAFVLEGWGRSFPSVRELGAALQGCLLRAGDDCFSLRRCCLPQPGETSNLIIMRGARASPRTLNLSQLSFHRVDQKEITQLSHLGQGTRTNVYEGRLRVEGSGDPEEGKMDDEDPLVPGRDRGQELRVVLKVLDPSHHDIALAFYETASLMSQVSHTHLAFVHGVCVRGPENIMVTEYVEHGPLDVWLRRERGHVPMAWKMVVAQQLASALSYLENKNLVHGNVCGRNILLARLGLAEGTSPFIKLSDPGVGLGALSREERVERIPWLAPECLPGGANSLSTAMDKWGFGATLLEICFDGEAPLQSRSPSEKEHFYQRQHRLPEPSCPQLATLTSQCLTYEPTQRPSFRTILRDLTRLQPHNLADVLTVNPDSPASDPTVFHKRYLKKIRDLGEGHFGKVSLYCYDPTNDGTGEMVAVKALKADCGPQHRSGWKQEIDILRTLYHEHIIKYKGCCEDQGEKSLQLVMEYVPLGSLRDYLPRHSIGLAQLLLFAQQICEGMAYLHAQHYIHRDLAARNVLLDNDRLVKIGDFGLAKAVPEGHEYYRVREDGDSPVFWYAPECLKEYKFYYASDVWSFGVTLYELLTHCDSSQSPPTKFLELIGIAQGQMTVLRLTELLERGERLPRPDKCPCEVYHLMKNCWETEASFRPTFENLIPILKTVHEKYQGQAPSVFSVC
In experiment [5] the target is T2, Receptor-interacting serine/threonine-protein kinase 4 (Homo sapiens) (UniProt P57078).
T2 sequence (whole entry): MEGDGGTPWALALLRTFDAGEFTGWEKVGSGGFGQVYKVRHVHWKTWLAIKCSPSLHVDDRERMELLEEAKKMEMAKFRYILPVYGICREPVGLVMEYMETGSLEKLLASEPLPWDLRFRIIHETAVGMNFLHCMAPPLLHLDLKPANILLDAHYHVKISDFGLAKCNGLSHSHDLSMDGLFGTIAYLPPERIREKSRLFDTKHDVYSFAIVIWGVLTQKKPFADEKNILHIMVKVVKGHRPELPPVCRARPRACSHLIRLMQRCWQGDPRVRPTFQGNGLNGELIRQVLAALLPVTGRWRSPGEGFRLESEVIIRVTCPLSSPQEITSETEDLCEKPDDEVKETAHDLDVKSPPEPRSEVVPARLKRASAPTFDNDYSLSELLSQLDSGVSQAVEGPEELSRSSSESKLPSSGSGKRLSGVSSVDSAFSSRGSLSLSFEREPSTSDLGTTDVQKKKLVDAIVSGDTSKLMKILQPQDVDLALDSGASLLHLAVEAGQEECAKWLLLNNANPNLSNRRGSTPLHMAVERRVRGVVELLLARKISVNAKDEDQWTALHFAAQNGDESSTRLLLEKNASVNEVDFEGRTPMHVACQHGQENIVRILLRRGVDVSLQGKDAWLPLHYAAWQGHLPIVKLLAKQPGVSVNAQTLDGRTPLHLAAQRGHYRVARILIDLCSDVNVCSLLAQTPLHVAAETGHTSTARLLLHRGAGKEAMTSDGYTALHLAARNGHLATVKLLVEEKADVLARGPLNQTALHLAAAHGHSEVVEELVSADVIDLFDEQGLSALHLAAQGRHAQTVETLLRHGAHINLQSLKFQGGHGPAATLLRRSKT
Kind of experiment: Selectivity interaction (KinomeScan (DiscoverX)) EUB0000595a RIPK4. Conditions: at 10 µM.

Experiment [6] concerns the target T3, NUAK family SNF1-like kinase 1 (Homo sapiens) (UniProt O60285).
T3 sequence (whole entry): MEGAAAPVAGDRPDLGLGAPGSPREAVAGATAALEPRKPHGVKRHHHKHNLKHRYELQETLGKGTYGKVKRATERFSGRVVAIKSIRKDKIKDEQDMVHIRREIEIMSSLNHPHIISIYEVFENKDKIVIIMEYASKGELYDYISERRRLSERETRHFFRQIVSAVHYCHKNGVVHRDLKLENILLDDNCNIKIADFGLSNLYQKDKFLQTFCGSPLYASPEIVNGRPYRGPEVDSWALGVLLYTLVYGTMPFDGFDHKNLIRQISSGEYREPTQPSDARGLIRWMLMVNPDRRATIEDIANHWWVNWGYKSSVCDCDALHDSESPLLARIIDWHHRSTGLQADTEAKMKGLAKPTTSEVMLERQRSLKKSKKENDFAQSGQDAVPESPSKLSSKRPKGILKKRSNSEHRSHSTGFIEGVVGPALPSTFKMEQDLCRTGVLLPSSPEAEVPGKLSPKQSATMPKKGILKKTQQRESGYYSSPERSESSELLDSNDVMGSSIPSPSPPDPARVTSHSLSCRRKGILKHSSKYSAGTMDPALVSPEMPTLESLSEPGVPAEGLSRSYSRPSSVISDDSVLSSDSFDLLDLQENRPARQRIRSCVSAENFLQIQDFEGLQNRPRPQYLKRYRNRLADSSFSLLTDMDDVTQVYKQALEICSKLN
The experiment is described as follows: Selectivity interaction (KinomeScan (DiscoverX)) EUB0000595a NUAK1. Conditions: at 10 µM.

Serine-protein kinase ATM (Homo sapiens), sequence (Q13315 whole entry): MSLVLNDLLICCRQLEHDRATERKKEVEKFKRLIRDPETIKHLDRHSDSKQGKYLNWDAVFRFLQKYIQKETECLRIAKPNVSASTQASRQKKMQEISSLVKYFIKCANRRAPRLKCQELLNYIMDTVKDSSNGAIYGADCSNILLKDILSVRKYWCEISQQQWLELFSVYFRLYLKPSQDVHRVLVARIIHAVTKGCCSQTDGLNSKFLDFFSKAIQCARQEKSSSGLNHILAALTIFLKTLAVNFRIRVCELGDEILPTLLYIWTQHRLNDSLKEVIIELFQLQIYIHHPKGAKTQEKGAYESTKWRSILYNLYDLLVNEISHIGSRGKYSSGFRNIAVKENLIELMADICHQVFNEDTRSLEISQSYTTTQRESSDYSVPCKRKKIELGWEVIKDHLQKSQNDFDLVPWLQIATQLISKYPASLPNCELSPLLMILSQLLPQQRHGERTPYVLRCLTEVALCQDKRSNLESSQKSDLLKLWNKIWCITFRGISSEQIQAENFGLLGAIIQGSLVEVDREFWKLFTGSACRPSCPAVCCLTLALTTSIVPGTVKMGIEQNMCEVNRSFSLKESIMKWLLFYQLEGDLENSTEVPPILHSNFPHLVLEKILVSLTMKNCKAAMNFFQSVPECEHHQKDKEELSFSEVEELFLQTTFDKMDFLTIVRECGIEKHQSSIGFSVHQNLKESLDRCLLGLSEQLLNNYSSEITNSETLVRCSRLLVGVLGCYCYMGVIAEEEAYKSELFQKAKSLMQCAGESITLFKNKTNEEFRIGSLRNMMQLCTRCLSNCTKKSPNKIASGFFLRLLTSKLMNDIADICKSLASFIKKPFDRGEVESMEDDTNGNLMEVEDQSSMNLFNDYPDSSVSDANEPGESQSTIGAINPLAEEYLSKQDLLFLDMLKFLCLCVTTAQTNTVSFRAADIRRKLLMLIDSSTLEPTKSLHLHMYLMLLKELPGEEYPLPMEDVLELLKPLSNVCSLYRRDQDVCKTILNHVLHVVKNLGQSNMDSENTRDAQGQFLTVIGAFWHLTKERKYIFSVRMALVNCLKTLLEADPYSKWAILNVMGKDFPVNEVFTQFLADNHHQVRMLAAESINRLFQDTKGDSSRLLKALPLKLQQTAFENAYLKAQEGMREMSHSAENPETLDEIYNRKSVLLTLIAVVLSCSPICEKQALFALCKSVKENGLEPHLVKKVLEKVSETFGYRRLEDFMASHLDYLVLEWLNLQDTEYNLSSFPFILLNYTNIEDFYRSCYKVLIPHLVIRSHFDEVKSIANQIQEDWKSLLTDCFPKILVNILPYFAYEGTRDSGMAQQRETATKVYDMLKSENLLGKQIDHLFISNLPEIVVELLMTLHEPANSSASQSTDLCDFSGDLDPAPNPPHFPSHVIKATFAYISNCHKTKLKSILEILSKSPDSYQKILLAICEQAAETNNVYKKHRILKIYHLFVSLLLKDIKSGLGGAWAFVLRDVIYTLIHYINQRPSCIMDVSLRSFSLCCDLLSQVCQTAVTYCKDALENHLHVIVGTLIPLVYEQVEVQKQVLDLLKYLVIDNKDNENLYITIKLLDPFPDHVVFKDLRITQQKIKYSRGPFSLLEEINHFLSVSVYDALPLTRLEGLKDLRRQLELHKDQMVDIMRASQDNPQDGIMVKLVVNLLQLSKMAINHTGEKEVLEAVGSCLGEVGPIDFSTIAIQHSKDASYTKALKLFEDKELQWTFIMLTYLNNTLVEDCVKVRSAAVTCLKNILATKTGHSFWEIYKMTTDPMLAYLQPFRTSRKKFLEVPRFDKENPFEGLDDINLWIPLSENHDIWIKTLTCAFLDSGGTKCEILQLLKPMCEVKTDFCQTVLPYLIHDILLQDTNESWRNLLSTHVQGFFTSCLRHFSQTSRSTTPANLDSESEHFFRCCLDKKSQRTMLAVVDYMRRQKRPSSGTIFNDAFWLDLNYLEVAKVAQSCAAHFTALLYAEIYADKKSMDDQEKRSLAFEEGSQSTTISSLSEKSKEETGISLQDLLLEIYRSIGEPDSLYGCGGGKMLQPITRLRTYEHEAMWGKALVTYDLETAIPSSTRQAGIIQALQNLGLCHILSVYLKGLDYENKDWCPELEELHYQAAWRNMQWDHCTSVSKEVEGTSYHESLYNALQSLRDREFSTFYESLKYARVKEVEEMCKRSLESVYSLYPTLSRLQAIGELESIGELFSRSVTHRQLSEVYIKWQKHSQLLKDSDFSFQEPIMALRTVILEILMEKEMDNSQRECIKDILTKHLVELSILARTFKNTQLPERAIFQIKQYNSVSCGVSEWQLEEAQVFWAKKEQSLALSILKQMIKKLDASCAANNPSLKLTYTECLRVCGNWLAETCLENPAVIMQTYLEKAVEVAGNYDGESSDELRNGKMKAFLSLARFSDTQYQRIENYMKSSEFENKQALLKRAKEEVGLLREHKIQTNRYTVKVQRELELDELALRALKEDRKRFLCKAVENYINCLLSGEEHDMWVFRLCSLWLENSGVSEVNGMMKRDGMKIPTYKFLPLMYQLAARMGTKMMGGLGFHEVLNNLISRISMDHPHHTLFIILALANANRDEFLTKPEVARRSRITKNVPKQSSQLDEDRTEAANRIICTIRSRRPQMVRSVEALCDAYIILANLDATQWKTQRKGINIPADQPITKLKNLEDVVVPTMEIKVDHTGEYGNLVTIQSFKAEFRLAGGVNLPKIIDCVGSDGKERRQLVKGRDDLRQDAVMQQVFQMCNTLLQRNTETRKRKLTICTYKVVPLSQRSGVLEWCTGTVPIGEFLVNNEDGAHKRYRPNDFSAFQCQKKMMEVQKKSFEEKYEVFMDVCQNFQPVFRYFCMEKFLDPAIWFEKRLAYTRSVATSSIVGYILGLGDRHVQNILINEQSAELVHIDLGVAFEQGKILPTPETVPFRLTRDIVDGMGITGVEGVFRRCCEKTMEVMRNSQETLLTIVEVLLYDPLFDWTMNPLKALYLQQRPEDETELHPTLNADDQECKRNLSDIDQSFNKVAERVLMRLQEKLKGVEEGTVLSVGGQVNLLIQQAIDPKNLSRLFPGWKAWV
Bone morphogenetic protein receptor type-1A, sequence (P36894 whole entry): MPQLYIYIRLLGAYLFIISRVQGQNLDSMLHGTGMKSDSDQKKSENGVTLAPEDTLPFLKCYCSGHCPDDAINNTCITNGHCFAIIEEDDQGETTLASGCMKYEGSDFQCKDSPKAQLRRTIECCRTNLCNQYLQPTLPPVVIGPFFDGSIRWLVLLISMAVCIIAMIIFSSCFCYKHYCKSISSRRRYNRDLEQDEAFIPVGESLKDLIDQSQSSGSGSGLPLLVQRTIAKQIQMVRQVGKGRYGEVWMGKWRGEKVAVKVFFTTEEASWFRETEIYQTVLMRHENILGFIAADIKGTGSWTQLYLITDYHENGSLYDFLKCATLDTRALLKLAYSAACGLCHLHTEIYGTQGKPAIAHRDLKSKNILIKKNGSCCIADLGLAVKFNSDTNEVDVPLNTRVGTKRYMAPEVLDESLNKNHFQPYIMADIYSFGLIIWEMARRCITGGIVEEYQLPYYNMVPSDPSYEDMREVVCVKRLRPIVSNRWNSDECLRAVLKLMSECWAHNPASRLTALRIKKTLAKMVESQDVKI

As to `O=C(NOC[C@H](O)CO)c1ccc(F)c(F)c1Nc1ccc(I)cc1F`, the % of control in experiment [1] was determined as 100%.

In experiment [2], `CNCCN1CCC(c2cc(CN(C)C(=O)c3cccc(Oc4ccccc4)c3)ccn2)CC1` displayed a % activity above 90%.

Consider `CC[C@@H]1[C@H](F)C(=O)N[C@@H]1COc1nccc2cc(C(N)=O)c(OC)cc12` [ZIMLOVISERTIB], for which the % of inhibition in experiment [3] (at 0.01 µM) is 12.7%; in experiment [3] (at 0.04 µM), -2.1%; in experiment [3] (at 0.2 µM), -2.2%; in experiment [3] (at 1 µM), -15.7%; in experiment [3] (at 5 µM) it was 24%; in experiment [4] it was 5.13%.

For the compound `COCC(=O)NC/C=C/c1ccc2ncnc(Nc3ccc(Oc4ccc(C)nc4)c(C)c3)c2c1` [CP-724714], the % of control in experiment [5] and in experiment [6] was 100% in each case.
